Measurements from US20250144067A1, “PERSONALIZED STARVATION THERAPY FOR CANCER” (Faeth Therapeutics, Inc., priority 2021, published 2025).
Counter-ions that a name gives are not always drawn.

system: NCI-H292 lung cancer cells; assay: FDA drug screening, complete media vs cholesterol-free media without statin (TABLE 1); format: cell-based, human; details: Complete minus Cholesterol-free; >0 enhanced anti-cancer activity, about 0 neutral, <0 antagonist

SMILES	Difference
O=C(O)c1ccccc1Nc1cccc(C(F)(F)F)c1 [Flufenamic acid]	−0.24
CCOC(=O)c1ncn2c1CN(C)C(=O)c1cc(F)ccc1-2 [Flumazenil]	0.05
Fc1ccc(C(c2ccc(F)cc2)N2CCN(C/C=C/c3ccccc3)CC2)cc1 [Flunarizine (dihydrochloride)]	0.07
CC1(C)O[C@@H]2C[C@H]3[C@@H]4C[C@H](F)C5=CC(=O)C=C[C@]5(C)[C@H]4[C@@H](O)C[C@]3(C)[C@]2(C(=O)CO)O1 [Flunisolide]	−0.06
CC1(C)O[C@@H]2C[C@H]3[C@@H]4C[C@H](F)C5=CC(=O)C=C[C@]5(C)[C@@]4(F)[C@@H](O)C[C@]3(C)[C@]2(C(=O)CO)O1 [Fluocinolone (Acetonide)]	0.01
CC(=O)OCC(=O)[C@@]12OC(C)(C)O[C@@H]1C[C@H]1[C@@H]3C[C@H](F)C4=CC(=O)C=C[C@]4(C)[C@@]3(F)[C@@H](O)C[C@@]12C [Fluocinonide]	−0.04

same assay, conditions: Complete minus Cholesterol-free; […]

SMILES	Difference
N#Cc1c(N2C[C@@H]3NCCO[C@H]3C2)c(F)cc2c(=O)c(C(=O)O)cn(C3CC3)c12 [Finafloxacin]	−0.22

same assay, conditions: NCI-H292 cells, cholesterol-free media without statin

SMILES	Cholesterol-free
N#Cc1c(N2C[C@@H]3NCCO[C@H]3C2)c(F)cc2c(=O)c(C(=O)O)cn(C3CC3)c12 [Finafloxacin]	1.006
O=C(O)c1ccccc1Nc1cccc(C(F)(F)F)c1 [Flufenamic acid]	1.258

same assay, conditions: NCI-H292 cells, cholesterol-free media without statin, FDA drug library screen

SMILES	Cholesterol-free
CCOC(=O)c1ncn2c1CN(C)C(=O)c1cc(F)ccc1-2 [Flumazenil]	1.073
Fc1ccc(C(c2ccc(F)cc2)N2CCN(C/C=C/c3ccccc3)CC2)cc1 [Flunarizine (dihydrochloride)]	0.971
CC1(C)O[C@@H]2C[C@H]3[C@@H]4C[C@H](F)C5=CC(=O)C=C[C@]5(C)[C@H]4[C@@H](O)C[C@]3(C)[C@]2(C(=O)CO)O1 [Flunisolide]	0.8546
CC1(C)O[C@@H]2C[C@H]3[C@@H]4C[C@H](F)C5=CC(=O)C=C[C@]5(C)[C@@]4(F)[C@@H](O)C[C@]3(C)[C@]2(C(=O)CO)O1 [Fluocinolone (Acetonide)]	0.5523
CC(=O)OCC(=O)[C@@]12OC(C)(C)O[C@@H]1C[C@H]1[C@@H]3C[C@H](F)C4=CC(=O)C=C[C@]4(C)[C@@]3(F)[C@@H](O)C[C@@]12C [Fluocinonide]	0.5848

same assay, conditions: NCI-H292 cells, complete media

SMILES	Complete
N#Cc1c(N2C[C@@H]3NCCO[C@H]3C2)c(F)cc2c(=O)c(C(=O)O)cn(C3CC3)c12 [Finafloxacin]	0.7899
O=C(O)c1ccccc1Nc1cccc(C(F)(F)F)c1 [Flufenamic acid]	1.021

same assay, conditions: NCI-H292 cells, complete media, FDA drug library screen

SMILES	Complete
CCOC(=O)c1ncn2c1CN(C)C(=O)c1cc(F)ccc1-2 [Flumazenil]	1.128
Fc1ccc(C(c2ccc(F)cc2)N2CCN(C/C=C/c3ccccc3)CC2)cc1 [Flunarizine (dihydrochloride)]	1.036
CC1(C)O[C@@H]2C[C@H]3[C@@H]4C[C@H](F)C5=CC(=O)C=C[C@]5(C)[C@H]4[C@@H](O)C[C@]3(C)[C@]2(C(=O)CO)O1 [Flunisolide]	0.7935
CC1(C)O[C@@H]2C[C@H]3[C@@H]4C[C@H](F)C5=CC(=O)C=C[C@]5(C)[C@@]4(F)[C@@H](O)C[C@]3(C)[C@]2(C(=O)CO)O1 [Fluocinolone (Acetonide)]	0.5617
CC(=O)OCC(=O)[C@@]12OC(C)(C)O[C@@H]1C[C@H]1[C@@H]3C[C@H](F)C4=CC(=O)C=C[C@]4(C)[C@@]3(F)[C@@H](O)C[C@@]12C [Fluocinonide]	0.544

system: NCI-H292 lung cancer cells; assay: FDA drug screening, complete media vs cholesterol-free media with simvastatin (TABLE 2); format: cell-based, human; details: NCI-H292 cells, FDA drug library screen, cholesterol-free media with simvastatin 0.04 μM

SMILES	Cholesterol-free media + simvastatin (0.04 μM)
CC(=O)OCC(=O)[C@@]12OC(C)(C)O[C@@H]1C[C@H]1[C@@H]3C[C@H](F)C4=CC(=O)C=C[C@]4(C)[C@@]3(F)[C@@H](O)C[C@@]12C [Fluocinonide]	0.6998

same assay, conditions: NCI-H292 cells, FDA drug library screen, complete media

SMILES	Complete Media
CC(=O)OCC(=O)[C@@]12OC(C)(C)O[C@@H]1C[C@H]1[C@@H]3C[C@H](F)C4=CC(=O)C=C[C@]4(C)[C@@]3(F)[C@@H](O)C[C@@]12C [Fluocinonide]	0.898

same assay, conditions: NCI-H292 cells, FDA library drug in cholesterol-free media with simvastatin 0.04 μM

SMILES	Cholesterol-free media + simvastatin (0.04 μM)
CCOC(=O)c1ncn2c1CN(C)C(=O)c1cc(F)ccc1-2 [Flumazenil]	1.268

same assay, conditions: NCI-H292 cells, FDA library drug in complete media

SMILES	Complete Media
CCOC(=O)c1ncn2c1CN(C)C(=O)c1cc(F)ccc1-2 [Flumazenil]	0.8397

same assay, conditions: NCI-H292 cells, cholesterol-free media with simvastatin 0.04 μM; cell growth value in FDA drug screen

SMILES	Cholesterol-free media + simvastatin (0.04 μM)
Fc1ccc(C(c2ccc(F)cc2)N2CCN(C/C=C/c3ccccc3)CC2)cc1 [Flunarizine (dihydrochloride)]	0.8172
CC1(C)O[C@@H]2C[C@H]3[C@@H]4C[C@H](F)C5=CC(=O)C=C[C@]5(C)[C@H]4[C@@H](O)C[C@]3(C)[C@]2(C(=O)CO)O1 [Flunisolide]	0.5373

same assay, conditions: NCI-H292 cells, complete media; cell growth value in FDA drug screen

SMILES	Complete Media
Fc1ccc(C(c2ccc(F)cc2)N2CCN(C/C=C/c3ccccc3)CC2)cc1 [Flunarizine (dihydrochloride)]	0.8617
CC1(C)O[C@@H]2C[C@H]3[C@@H]4C[C@H](F)C5=CC(=O)C=C[C@]5(C)[C@H]4[C@@H](O)C[C@]3(C)[C@]2(C(=O)CO)O1 [Flunisolide]	0.6048

same assay, conditions: NCI-H292 cells, drug in cholesterol-free media with simvastatin 0.04 μM

SMILES	Cholesterol-free media + simvastatin (0.04 μM)
N#Cc1c(N2C[C@@H]3NCCO[C@H]3C2)c(F)cc2c(=O)c(C(=O)O)cn(C3CC3)c12 [Finafloxacin]	1.227
O=C(O)c1ccccc1Nc1cccc(C(F)(F)F)c1 [Flufenamic acid]	1.298
CC1(C)O[C@@H]2C[C@H]3[C@@H]4C[C@H](F)C5=CC(=O)C=C[C@]5(C)[C@@]4(F)[C@@H](O)C[C@]3(C)[C@]2(C(=O)CO)O1 [Fluocinolone (Acetonide)]	0.6444

same assay, conditions: NCI-H292 cells, drug in complete media

SMILES	Complete Media
N#Cc1c(N2C[C@@H]3NCCO[C@H]3C2)c(F)cc2c(=O)c(C(=O)O)cn(C3CC3)c12 [Finafloxacin]	0.9973
O=C(O)c1ccccc1Nc1cccc(C(F)(F)F)c1 [Flufenamic acid]	1.077
CC1(C)O[C@@H]2C[C@H]3[C@@H]4C[C@H](F)C5=CC(=O)C=C[C@]5(C)[C@@]4(F)[C@@H](O)C[C@]3(C)[C@]2(C(=O)CO)O1 [Fluocinolone (Acetonide)]	0.4689

same assay, conditions: complete media minus cholesterol-free media + simvastatin; >0 enhanced anti-cancer activity, about 0 neutral, <0 antagonist

SMILES	Difference
Fc1ccc(C(c2ccc(F)cc2)N2CCN(C/C=C/c3ccccc3)CC2)cc1 [Flunarizine (dihydrochloride)]	0.04
CC1(C)O[C@@H]2C[C@H]3[C@@H]4C[C@H](F)C5=CC(=O)C=C[C@]5(C)[C@H]4[C@@H](O)C[C@]3(C)[C@]2(C(=O)CO)O1 [Flunisolide]	0.07
CC(=O)OCC(=O)[C@@]12OC(C)(C)O[C@@H]1C[C@H]1[C@@H]3C[C@H](F)C4=CC(=O)C=C[C@]4(C)[C@@]3(F)[C@@H](O)C[C@@]12C [Fluocinonide]	0.20

same assay, conditions: complete media vs cholesterol-free media + simvastatin (0.04 μM); >0 enhanced anti-cancer activity, about 0 neutral, <0 antagonist

SMILES	Difference
O=C(O)c1ccccc1Nc1cccc(C(F)(F)F)c1 [Flufenamic acid]	−0.22
CCOC(=O)c1ncn2c1CN(C)C(=O)c1cc(F)ccc1-2 [Flumazenil]	−0.43
CC1(C)O[C@@H]2C[C@H]3[C@@H]4C[C@H](F)C5=CC(=O)C=C[C@]5(C)[C@@]4(F)[C@@H](O)C[C@]3(C)[C@]2(C(=O)CO)O1 [Fluocinolone (Acetonide)]	−0.18

same assay, conditions: complete media vs cholesterol-free media + simvastatin (0.04 μM); […]

SMILES	Difference
N#Cc1c(N2C[C@@H]3NCCO[C@H]3C2)c(F)cc2c(=O)c(C(=O)O)cn(C3CC3)c12 [Finafloxacin]	−0.23
